Test results taken from PubChem BioAssay (NCI).
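Growth conditions: 96-well plates. Treatment: test compound, 48 hours, 5 concentrations. Analysis: linear interpolation between bracketing concentrations; unreached endpoints set to highest concentration. GI50: concentration for 50% inhibition of growth. TGI marks complete inhibition of growth.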

Assays:
Test in all cases: NCI tumour cell line growth inhibition, 48 h
[1] = system: 786-0 renal
[2] = system: A498 renal
[3] = system: A549 NSCLC
[4] = system: ACHN renal
[5] = system: BT-549 breast
[6] = system: CAKI-1 renal
[7] = system: CCRF-CEM leukemia
[8] = system: COLO 205 colon
[9] = system: DU-145 prostate
[10] = system: HCC-2998 colon
[11] = system: HCT-116 colon
[12] = system: HCT-15 colon
[13] = system: HL-60(TB) leukemia
[14] = system: HOP-62 NSCLC
[15] = system: HOP-92 NSCLC
[16] = system: HS 578T breast
[17] = system: HT29 colon
[18] = system: IGROV1 ovarian
[19] = system: K-562 leukemia
[20] = system: KM12 colon
[21] = system: LOX IMVI melanoma
[22] = system: M14 melanoma
[23] = system: MALME-3M melanoma
[24] = system: MCF7 breast
[25] = system: MDA-MB-231 breast
[26] = system: MDA-MB-435
[27] = system: MOLT-4 leukemia
[28] = system: NCI-H226 lung
[29] = system: NCI-H23 lung
[30] = system: NCI-H460 lung
[31] = system: NCI-H522 lung
[32] = system: NCI/ADR-RES ovarian
[33] = system: OVCAR-3 ovarian
[34] = system: OVCAR-4 ovarian
[35] = system: OVCAR-5 ovarian
[36] = system: OVCAR-8 ovarian
[37] = system: PC-3 prostate
[38] = system: RPMI-8226 leukemia
[39] = system: RXF 393 renal
[40] = system: SF-268 CNS
[41] = system: SF-295 CNS
[42] = system: SF-539 CNS
[43] = system: SK-MEL-2 melanoma
[44] = system: SK-MEL-28 melanoma
[45] = system: SK-MEL-5 melanoma
[46] = system: SK-OV-3 ovarian
[47] = system: SN12C renal
[48] = system: SNB-19 CNS
[49] = system: SNB-75 CNS
[50] = system: SR leukemia
[51] = system: SW-620 colon
[52] = system: T-47D breast
[53] = system: TK-10 renal
[54] = system: U251 CNS
[55] = system: UACC-257 melanoma
[56] = system: UACC-62 melanoma
[57] = system: UO-31 renal
[58] = system: EKVX NSCLC

OCc1ccc(N2CCC2c2ccc(F)cc2)cc1Cl (stereo not given)
GI50 [1]: 22.6 µM
TGI [1]: > 61.5 µM
GI50 [2]: 0.0584 µM
TGI [2]: 0.244 µM
GI50 [3]: 7.44 µM
TGI [3]: 64 µM
GI50 [4]: 30.8 µM
TGI [4]: > 100 µM
GI50 [5]: 21.2 µM
TGI [5]: 49.9 µM
GI50 [6]: 12.9 µM
TGI [6]: > 57.1 µM
GI50 [7]: 26 µM
TGI [7]: > 82.9 µM
GI50 [8]: 3.44 µM
TGI [8]: 15.3 µM
GI50 [9]: 35.8 µM
TGI [9]: > 100 µM
GI50 [10]: 17.5 µM
TGI [10]: 46 µM
GI50 [11]: 0.481 µM
TGI [11]: > 38.2 µM
GI50 [12]: 21.5 µM
TGI [12]: > 100 µM
GI50 [13]: 18.5 µM
TGI [13]: 51.8 µM
GI50 [14]: 10.1 µM
TGI [14]: > 68 µM
GI50 [15]: 3.14 µM
TGI [15]: 25.1 µM
GI50 [16]: 26.7 µM
TGI [16]: > 86.8 µM
GI50 [17]: 5.13 µM
TGI [17]: 33 µM
TGI [18]: 0.742 µM
GI50 [19]: 6.66 µM
TGI [19]: 58.6 µM
GI50 [20]: 24.3 µM
TGI [20]: > 66.4 µM
GI50 [21]: 22.5 µM
TGI [21]: 51.1 µM
GI50 [22]: 32.7 µM
TGI [22]: > 79.4 µM
GI50 [23]: 29.4 µM
TGI [23]: > 66.1 µM
GI50 [24]: 0.69 µM
TGI [24]: 24.5 µM
GI50 [25]: 22.6 µM
TGI [25]: > 68.3 µM
GI50 [26]: 26.6 µM
TGI [26]: > 75.7 µM
GI50 [27]: 25 µM
TGI [27]: 64.6 µM
GI50 [28]: 0.0912 µM
TGI [28]: 0.322 µM
GI50 [29]: 22.2 µM
TGI [29]: > 80.1 µM
GI50 [30]: 0.511 µM
TGI [30]: 12.4 µM
GI50 [31]: 20.9 µM
TGI [31]: 55.9 µM
GI50 [32]: 23.7 µM
TGI [32]: > 88.8 µM
GI50 [33]: 2.34 µM
TGI [33]: 13.8 µM
GI50 [34]: 0.925 µM
TGI [34]: > 59.3 µM
GI50 [35]: 0.256 µM
TGI [35]: 1.9 µM
GI50 [36]: 23.6 µM
TGI [36]: > 100 µM
GI50 [37]: 21 µM
TGI [37]: 67.1 µM
GI50 [38]: 6.56 µM
TGI [38]: 31.6 µM
GI50 [39]: 11.6 µM
TGI [39]: 30.4 µM
GI50 [40]: 35 µM
TGI [40]: > 100 µM
GI50 [41]: 0.438 µM
TGI [41]: 7.62 µM
GI50 [42]: 33.5 µM
TGI [42]: > 71 µM
GI50 [43]: 11.4 µM
TGI [43]: 29.3 µM
GI50 [44]: 28.7 µM
TGI [44]: > 100 µM
GI50 [45]: 8.92 µM
TGI [45]: 22.9 µM
GI50 [46]: 20.5 µM
TGI [46]: > 89.1 µM
GI50 [47]: 18.2 µM
TGI [47]: > 63.8 µM
GI50 [48]: 36.6 µM
TGI [48]: > 100 µM
GI50 [49]: 20.6 µM
TGI [49]: > 100 µM
GI50 [50]: 22.6 µM
TGI [50]: 54.8 µM
GI50 [51]: 4.93 µM
TGI [51]: > 100 µM
GI50 [52]: 0.209 µM
TGI [52]: 1.72 µM
GI50 [53]: 0.225 µM
TGI [53]: 1.61 µM
GI50 [54]: 3.92 µM
TGI [54]: > 46.5 µM
GI50 [55]: 0.278 µM
TGI [55]: 1.98 µM
GI50 [56]: 0.397 µM
TGI [56]: 6.95 µM
GI50 [57]: 20.8 µM
TGI [57]: 76.3 µM

COc1ccc(C(=O)Cn2c(C(=O)c3ccccc3)nc(-c3ccc(OC)cc3)c2-c2ccc(OC)cc2)cc1
GI50 [1]: 46.1 µM
TGI [1]: > 100 µM
GI50 [2]: > 100 µM
TGI [2]: > 100 µM
GI50 [3]: > 100 µM
TGI [3]: > 100 µM
GI50 [4]: > 100 µM
TGI [4]: > 100 µM
GI50 [5]: > 100 µM
TGI [5]: > 100 µM
GI50 [6]: 52.7 µM
TGI [6]: > 100 µM
GI50 [8]: > 100 µM
TGI [8]: > 100 µM
GI50 [9]: > 100 µM
TGI [9]: > 100 µM
GI50 [58]: > 100 µM
TGI [58]: > 100 µM
GI50 [10]: > 100 µM
TGI [10]: > 100 µM
GI50 [11]: > 100 µM
TGI [11]: > 100 µM
GI50 [12]: > 100 µM
TGI [12]: > 100 µM
GI50 [13]: > 100 µM
TGI [13]: > 100 µM
GI50 [14]: 74 µM
TGI [14]: > 100 µM
GI50 [15]: 24.5 µM
TGI [15]: 60.4 µM
GI50 [16]: 45.6 µM
TGI [16]: > 100 µM
GI50 [17]: > 100 µM
TGI [17]: > 100 µM
GI50 [18]: 71.2 µM
TGI [18]: > 100 µM
GI50 [19]: > 100 µM
TGI [19]: > 100 µM
GI50 [20]: > 100 µM
TGI [20]: > 100 µM
GI50 [21]: > 100 µM
TGI [21]: > 100 µM
GI50 [22]: > 100 µM
TGI [22]: > 100 µM
GI50 [23]: > 100 µM
TGI [23]: > 100 µM
GI50 [24]: > 100 µM
TGI [24]: > 100 µM
GI50 [25]: 64.3 µM
TGI [25]: > 100 µM
GI50 [26]: > 100 µM
TGI [26]: > 100 µM
GI50 [27]: > 100 µM
TGI [27]: > 100 µM
GI50 [28]: > 100 µM
TGI [28]: > 100 µM
GI50 [29]: > 100 µM
TGI [29]: > 100 µM
GI50 [30]: > 100 µM
TGI [30]: > 100 µM
GI50 [31]: > 100 µM
TGI [31]: > 100 µM
GI50 [32]: > 100 µM
TGI [32]: > 100 µM
GI50 [33]: > 100 µM
TGI [33]: > 100 µM
GI50 [34]: > 100 µM
TGI [34]: > 100 µM
GI50 [35]: > 100 µM
TGI [35]: > 100 µM
GI50 [36]: > 100 µM
TGI [36]: > 100 µM
GI50 [37]: > 100 µM
TGI [37]: > 100 µM
GI50 [38]: > 100 µM
TGI [38]: > 100 µM
GI50 [39]: 19.9 µM
TGI [39]: 49.2 µM
GI50 [40]: 86.4 µM
TGI [40]: > 100 µM
GI50 [41]: 42.5 µM
TGI [41]: > 100 µM
GI50 [42]: 31.5 µM
TGI [42]: > 100 µM
GI50 [43]: 66 µM
TGI [43]: > 100 µM
GI50 [44]: > 100 µM
TGI [44]: > 100 µM
GI50 [45]: > 100 µM
TGI [45]: > 100 µM
GI50 [46]: 97.8 µM
TGI [46]: > 100 µM
GI50 [47]: > 100 µM
TGI [47]: > 100 µM
GI50 [48]: > 100 µM
TGI [48]: > 100 µM
GI50 [49]: 7.71 µM
TGI [49]: 38.4 µM
GI50 [51]: > 100 µM
TGI [51]: > 100 µM
GI50 [52]: > 100 µM
TGI [52]: > 100 µM
GI50 [53]: > 100 µM
TGI [53]: > 100 µM
GI50 [54]: 64.9 µM
TGI [54]: > 100 µM
GI50 [55]: > 100 µM
TGI [55]: > 100 µM
GI50 [56]: 98.3 µM
TGI [56]: > 100 µM
GI50 [57]: > 100 µM
TGI [57]: > 100 µM
